From publication PMC12850010, “Interaction of cytochrome P450 3A4 with the hydrophilic ligand tetraethylene glycol” (Biochemical and biophysical research communications, 2025)

What was measured:
[1] = biological target: T1, CYP3A4 (Homo sapiens, UniProt P08684); assay: Spectral binding (equilibrium) titrations of CYP3A4; settings: for Kd: human, CYP3A4 protein solution (2 μM), sigmoidal (Hill) fit
Procedure: (§1) Equilibrium titrations of CYP3A4 were conducted in a Cary 300 spectrophotometer at ambient temperature in 0.1 M phosphate, pH 7.4. […] The binding parameters were determined from fittings to the plot of the absorbance change (peak-to-trough separations in the difference spectra; ΔA) vs ligand concentration.

[2] = biological target: T1, CYP3A4; settings: pH 7.4
Procedure: as §1

T1 sequence (P08684 with tags, fused parts or gaps): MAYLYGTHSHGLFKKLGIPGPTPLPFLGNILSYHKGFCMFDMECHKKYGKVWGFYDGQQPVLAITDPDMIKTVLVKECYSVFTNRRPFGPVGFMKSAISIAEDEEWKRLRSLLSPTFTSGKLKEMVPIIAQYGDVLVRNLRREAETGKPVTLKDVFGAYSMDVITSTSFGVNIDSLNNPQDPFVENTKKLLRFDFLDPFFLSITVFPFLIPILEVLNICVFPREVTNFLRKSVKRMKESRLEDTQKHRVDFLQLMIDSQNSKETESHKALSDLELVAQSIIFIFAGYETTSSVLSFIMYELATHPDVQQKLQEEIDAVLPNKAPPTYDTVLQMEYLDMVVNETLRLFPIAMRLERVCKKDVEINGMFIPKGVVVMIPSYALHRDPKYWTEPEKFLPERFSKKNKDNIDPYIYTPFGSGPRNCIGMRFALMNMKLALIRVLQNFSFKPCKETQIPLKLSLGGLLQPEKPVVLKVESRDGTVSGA

| SMILES | Kd ([1]; pH 7.4, S50, 15 mM TEG) [µM] | Kd ([1]; pH 7.4, S50, no TEG) [µM] | nH (Hill coefficient) [2] | decrease of binding affinity for WT CYP3A4 in the presence of TEG ([1]; 15 mM TEG vs no TEG) [%] |
| --- | --- | --- | --- | --- |
| CC(=O)[C@H]1CC[C@H]2[C@@H]3CCC4=CC(=O)CC[C@]4(C)[C@H]3CC[C@]12C [Progesterone] | 16 ± 2 | 17 ± 1 | 1.6 ± 0.1 |  |
| Cc1ncc2n1-c1ccc(Cl)cc1C(c1ccccc1F)=NC2 [Midazolam] |  |  |  | 30 |
